Results on five compounds are retold here after patent publication US5397702A, “Assay for and treatment of autoimmune diseases” (priority 1990, dated 1995).

In assay [1] the target is rKv3.1 cDNA (Kv4). The conditions noted are these: data from Luneau, et al., 1991; read-out: Blockers, Kd / half-blocking dose; cited from earlier work.
The target of assay [2] is T1, type l K+ channel (human) (Homo sapiens, UniProt P48547).
T1 construct: Native channels; endogenous in cells; host or cells: Louckes human B cell lymphoma line
T1 sequence (P48547 1-511): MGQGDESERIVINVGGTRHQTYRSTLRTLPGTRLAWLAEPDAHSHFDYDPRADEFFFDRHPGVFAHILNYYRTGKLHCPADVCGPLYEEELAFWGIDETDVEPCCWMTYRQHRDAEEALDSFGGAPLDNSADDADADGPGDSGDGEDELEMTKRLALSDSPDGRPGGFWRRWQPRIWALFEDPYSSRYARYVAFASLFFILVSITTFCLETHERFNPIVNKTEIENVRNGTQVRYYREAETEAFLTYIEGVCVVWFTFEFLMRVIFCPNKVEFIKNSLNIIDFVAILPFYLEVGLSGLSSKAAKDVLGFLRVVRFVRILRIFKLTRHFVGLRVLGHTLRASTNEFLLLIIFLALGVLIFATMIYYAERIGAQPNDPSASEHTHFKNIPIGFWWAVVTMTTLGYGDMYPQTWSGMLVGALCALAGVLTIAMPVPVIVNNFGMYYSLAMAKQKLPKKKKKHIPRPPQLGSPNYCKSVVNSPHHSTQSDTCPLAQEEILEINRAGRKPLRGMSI
Put plainly: Patch-clamp pharmacology of type l K+ channels in human Louckes lymphoma cells. It counts as cell-based. The method, then:
For the two-electrode voltage-clamp experiments, cells were bathed in oocyte Ringer solution containing 96mM NaCl, 2 mM KCl, 1.8 mM CaCl2, 1 mM MgCl2, 5 mM N-2-hydroxyethylpiperazine-N'-2-ethanesulfonic acid (HEPES), and adjusted to pH 7.5 with NaOH. The pipette solution was 3 M KCl. Patch-clamp experiments were carried out under identical conditions in oocytes and in T cells, using a mammalian Ringer solution containing 160 mM NaCl, 4.5 mM KCl, 2 mM CaCl2,1 mM MgCl2, 5 mM HEPES, and adjusted to pH 7.4 with NaOH and a total osmolarity of 290-320 mosm/kg. Internal (pipette) solutions contained: 140 mM KF, 2 mM MgCl2, 1 mM CaCl2, 5mM HEPES, 11 mM K2 -ethylene glycol-bis(β-aminoethylether)N,N,N',N'-tetraacetic acid (EGTA). CTX was purchased from Latoxan (IBF-Biotechnics, Inc., Columbia, Md.).
(§1) The patch-clamp amplifier (List L/M-EPC 7, Adams and List Associates, Ltd., Great Neck, N.Y.) was used in the voltage-clamp mode without series resistance compensation. Patchclamp electrodes were pulled from Accu-fill 90 Micropets (Becton, Dickinson & Co., Parsippany, N.J.) in three stages, coated with Sylgard (Dow Corning Corp., Midland, Mich.) and fire-polished to resistances, measured in the bath, of 2-7 M.OMEGA.. In all patch-clamp experiments, the command input of the patch-clamp amplifier was controlled by a PDP 11/73 computer via a digital-analog converter, and membrane currents were recorded at a bandwidth of 2 kHz. The holding potential was adjusted in all experiments to E=-80 mV. Correction for capacitative currents was achieved by analog subtraction.
Type l Channels in a Human Lymphoma Line: The human B cell lymphoma line, Louckes, has been reported to express large numbers of type l K+ channels (Shapiro and DeCoursey, (1988) Biophys. J. 53, 550a). We have confirmed that Louckes cells display a K+ channel with gating kinetics and pharmacological sensitivities indistinguishable from the type l K+ channels of mouse T cells (Table I and II). Because Louckes is a human cell line, it should be possible to compare the Kv3.1 transcripts isolated from these cells with Kv3.1 transcripts isolated from mouse T cells.
A general note: Patch clamp records ionic current or voltage across a cell membrane.

Assay [3] deals with mKv3.1a cDNA (NGK2). The conditions noted are these: data from Yokoyama, et al., 1989, cited from earlier work.
Assay [4] addresses T2, mKv3.1b K+ channels (Mus musculus, UniProt P15388).
T2 construct: expressed in transfected cells; host or cells: Xenopus oocytes injected with mKv3.1b mRNA
T2 sequence (P15388 1-585 isoform P15388-3): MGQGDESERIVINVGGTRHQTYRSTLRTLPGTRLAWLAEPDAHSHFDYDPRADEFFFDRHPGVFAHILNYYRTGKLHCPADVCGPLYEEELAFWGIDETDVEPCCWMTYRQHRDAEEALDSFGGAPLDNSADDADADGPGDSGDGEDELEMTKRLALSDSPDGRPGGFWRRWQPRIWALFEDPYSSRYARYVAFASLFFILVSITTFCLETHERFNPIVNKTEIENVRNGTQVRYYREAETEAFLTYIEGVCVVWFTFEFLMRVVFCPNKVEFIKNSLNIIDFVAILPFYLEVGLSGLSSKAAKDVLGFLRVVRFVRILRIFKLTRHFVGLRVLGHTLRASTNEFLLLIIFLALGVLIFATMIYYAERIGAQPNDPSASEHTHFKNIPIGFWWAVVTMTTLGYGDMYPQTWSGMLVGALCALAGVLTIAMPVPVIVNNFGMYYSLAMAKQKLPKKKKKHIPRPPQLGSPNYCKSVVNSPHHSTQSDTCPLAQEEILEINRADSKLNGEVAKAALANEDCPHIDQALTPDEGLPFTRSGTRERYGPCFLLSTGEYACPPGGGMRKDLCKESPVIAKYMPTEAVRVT
Put plainly: cell-based. It counts as cell-based. As to the method: For transcription, the plasmid was linearized by digestion with SacI in the polylinker.
All experiments were done at room temperature (22°-26°C.).
(§2) The pipette solution was 3 M KCl. […] CTX was purchased from Latoxan (IBF-Biotechnics, Inc., Columbia, Md.).
as §1
Mouse Kv3.1b Expression in Oocytes: Xenopus oocytes express a high density of voltage-activated K+ channels following injection of mKv3.1b mRNA. […] Single channel recordings were done on outside-out patches from these oocytes, whereas gating and inactivation kinetics and pharmacological sensitivities were determined using outside-out patches of oocyte membrane injected with a 10 times more concentrated mRNA solution (50 nl of 0.1 μg/μ^1 mRNA).

Assay [5] has as its system type n channels. The conditions noted are these: cited from earlier work.
In assay [6] the target is T3, type n K+ channel (mouse) (Mus musculus, UniProt P16390).
T3 construct: Native channels; endogenous in cells; host or cells: mouse T cells
Put plainly: Patch-clamp pharmacology of type n K+ channels in mouse T cells. It counts as cell-based. The method, then:
(§3) A gigohm seal patch-clamp technique was employed [Hamill, et al., Pflugers Arch. […] Cells were separated and stained as described infra. Maximum K^+ conductances (gk) Of CD4^- CD8^- Thy-l.2^+ T cells were determined from the maximum peak K^+ current elicited at +40 mV (holding potential -80 mV), assuming a reversal potential for K^+ of -80 mV. All experiments were done at room temperature (22° to 26° C.). The cells under investigation were bathed in Ringer solution (in mM): 160 NaCl, 4.5 KCl, 2 MgCl2, 1 CaCl2, 2 MgCl2, and 10 K-HEPES (pH 7.4). […] Each point represents gk in one single cell except the ones with the bars that reflect the mean±SD of previously reported data. The data from C3H (n=12), C3H-lpr (n=22), C3H-gld (n=26), and MRL-lpr (n=31) are taken from Grissmer, et al., J. Immunol. […] Three types of voltage-gated K^+ channels (n, l, n') are expressed by murine T cells, which can be distinguished by electrophysiological and pharmacological criteria. DeCoursey, et al., J. Gen.
(§4) K^+ channels were identified on the basis of their inactivation properties, channel closing kinetics, and sensitivity to block by tetraethylammonium (TEA). Typically type n K^+ channels are use-dependent, i.e., show cumulative inactivation by repetitive depolarizing pulses. Use dependence was determined by measuring the decline in the size of the peak K^+ current elicited with one per second repetitive depolarizing pulses of 200 ms duration.
(§5) (5) Electrophysiology: After phenotypic identification by epifluorescence microscopy, single T cells were patch-clamped at room temperature (22° to 26° C).
(§6) Solutions: The cells under investigation were bathed in normal mammalian Ringer solution containing (in mM): 160 NaCl, 4.5 KCl, 2 MgCl2, 1CaCl2, and 5 Na-HEPES (pH 7.4). […] In Ringer solutions containing tetraethylammonium chloride (TEA^+), NaCl was replaced by the appropriate TEA^+ concentrations keeping the osmolarity constant. The bath solution could be changed during recordings by bath perfusion.

In assay [7] the target is T4, type l K+ channel (mouse) (Mus musculus, UniProt P15388).
T4 construct: Native channels; endogenous in cells; host or cells: mouse T cells (CD4-CD8- T cells of autoimmune strains such as MRL-lpr; normal cytotoxic T cells)
T4 sequence (P15388 1-511): T1 sequence (P48547 1-511) with I265V
The following applies: cited from earlier work; for effect on type l K+ channels, in words: MRL-lpr mice / mouse lymphocytes.

Assay [8] addresses T5, type n K+ channel (human) (Homo sapiens, UniProt P22001).
T5 construct: Native channels; endogenous in cells; host or cells: human T cells
As to the kind of experiment: Patch-clamp pharmacology of type n K+ channels in human T cells. It counts as cell-based. The conditions noted are these: for Kd: data from this paper.
From the text: as §2, §1

Assay [9] has as its target T4, type l K+ channel (mouse). Put plainly: Patch-clamp pharmacology of type l K+ channels in mouse T cells. The format is cell-based. The conditions noted are these: for Kd: data from this paper. As to the method:
as §3, §4, §5, §6

Assay [10] has as its target T3, type n K+ channel (mouse). The conditions noted are these: cited from earlier work.
In assay [11] the target is T5, type n K+ channel (human). The following applies: data from DeCoursey, et al., 1984, Sands, 1989, read-out: Blockers, Kd / half-blocking dose; cited from earlier work.
Setting [12] is: Louckes cells, read-out: Blockers, Kd / half-blocking dose.
[13] abbreviates: 20 mM Co^2+, data from this paper.
Setting [14] is: 20 mM Co^2+, data from DeCoursey, et al., 1987.
Setting [15] is: data from DeCoursey, et al., 1987, read-out: Blockers, Kd / half-blocking dose.
Where [16] appears, read: first value, read-out: apparent dissociation constant Kd, from reduction of the integral under the current trace.
Setting [17] is: second value, read-out: apparent dissociation constant Kd, from reduction of the peak current amplitude.

The structures appear in SMILES notation. Positions count from the first letter of the chain named. Read-outs that look alike come from different tables or passages of the source.

T3 sequence (P16390 whole entry): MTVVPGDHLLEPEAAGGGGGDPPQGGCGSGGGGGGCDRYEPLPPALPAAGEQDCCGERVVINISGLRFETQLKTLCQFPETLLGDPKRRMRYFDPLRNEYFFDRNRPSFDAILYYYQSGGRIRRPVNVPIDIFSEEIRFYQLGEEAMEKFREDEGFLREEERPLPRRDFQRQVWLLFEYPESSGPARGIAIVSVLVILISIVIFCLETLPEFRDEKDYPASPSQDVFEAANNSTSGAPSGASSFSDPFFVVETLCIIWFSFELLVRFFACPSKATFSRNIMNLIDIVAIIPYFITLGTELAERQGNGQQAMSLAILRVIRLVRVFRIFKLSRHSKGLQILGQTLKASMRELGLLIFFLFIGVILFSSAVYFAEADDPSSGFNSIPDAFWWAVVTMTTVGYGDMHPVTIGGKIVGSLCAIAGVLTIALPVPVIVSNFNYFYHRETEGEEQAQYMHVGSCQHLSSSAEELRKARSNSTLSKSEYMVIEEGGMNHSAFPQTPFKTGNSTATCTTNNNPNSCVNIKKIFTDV
T5 sequence (P22001 whole entry): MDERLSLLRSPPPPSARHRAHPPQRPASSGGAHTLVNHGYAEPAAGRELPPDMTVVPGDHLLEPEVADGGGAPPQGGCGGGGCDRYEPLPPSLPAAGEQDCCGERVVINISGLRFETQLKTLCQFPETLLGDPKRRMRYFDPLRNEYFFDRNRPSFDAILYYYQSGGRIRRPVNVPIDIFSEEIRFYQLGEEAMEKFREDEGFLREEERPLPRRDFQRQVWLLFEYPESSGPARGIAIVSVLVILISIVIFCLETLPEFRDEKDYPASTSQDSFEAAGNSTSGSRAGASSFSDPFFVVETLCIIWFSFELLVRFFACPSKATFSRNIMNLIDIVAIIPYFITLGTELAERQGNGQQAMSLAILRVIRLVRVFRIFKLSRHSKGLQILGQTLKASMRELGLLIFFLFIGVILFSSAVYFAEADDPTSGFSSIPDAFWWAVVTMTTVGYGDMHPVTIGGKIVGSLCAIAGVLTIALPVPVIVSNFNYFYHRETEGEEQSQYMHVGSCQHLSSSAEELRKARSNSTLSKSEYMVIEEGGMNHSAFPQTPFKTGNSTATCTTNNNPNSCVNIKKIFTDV

In the case of `Nc1ccncc1` [4-AP, 4-aminopyridine], the Kd is 300 µM in [1]; < 100 µM in assay [2] (setting [12]); 600 µM in [3] (read-out: Blockers, Kd / half-blocking dose).
As to `[Co+2]` [Co^2+], the “Effect of 20 mM Co^2+: block gK(Co)/gK” value in [2] (20 mM Co^2+) is 0.76; in assay [4] (20 mM Co^2+), 0.75; in assay [6] (setting [13]), 0.27; in [7] (setting [14]) it was 0.9. Moreover, the “Effect of 20 mM Co^2+: shift ΔEn” value in assay [2] (20 mM Co^2+) is listed as 30 mV; in assay [4] (20 mM Co^2+), 30 mV; in assay [6] (setting [13]) it was 40 mV; in assay [7] (setting [14]), 36 mV. For the same compound, the “effect on type n channels, in words” value in assay [5] is “strongly blocked”. In addition, in assay [7], the “effect on type l K+ channels, in words” value is “strongly shift the voltage dependence of activation to more depolarized potentials, with minimal blocking”. The “Effect of Co^2+: block gK(Co)/gK” value in [8] (10 mM Co^2+ (*)) worked out at 0.2. Moreover, the “Effect of Co^2+: shift ΔEn” value in assay [8] (10 mM Co^2+ (*)) was 28 mV.
On to `[La+3]` [La3+], for which the “effect on type n channels, in words” value in [5] is listed as “strongly blocked”. Further, in [7], the “effect on type l K+ channels, in words” value was “strongly shift the voltage dependence of activation to more depolarized potentials, with minimal blocking”.
On to `CC[N+](CC)(CC)CC` [TEA, tetraethylammonium], for which the Kd is 120 µM in [2] (setting [12]); 150 µM in assay [4] (outside-out oocyte patch, pulses to +40 mV from -80 mV, read-out: Blockers, Kd / half-blocking dose); 10000 to 13000 µM in assay [10] (setting [15]); 8000 µM in assay [10] (type n channels of murine T cells, read-out: KD of block by TEA, identification criterion); 8000 µM in assay [11]; 80 µM in assay [7] (setting [15]). Moreover, in [7] (type l channels of murine T cells, read-out: KD / half-blocking dose of block by TEA, identification criterion), the Kd is 100 µM. Also, the IC50 in assay [2] (human Louckes lymphoma cells, read-out: half-blocking dose) is 100 µM; in assay [9] it was 100 µM; in assay [6], 10000 µM.
As for `C=C[C@H]1C[N@@]2CC[C@H]1C[C@H]2[C@H](O)c1ccnc2ccc(OC)cc12` [quinine], the Kd was 10 µM in assay [2] (setting [16]); 20 µM in assay [2] (setting [17]); 10 µM in [9] (setting [16]); 19 µM in [9] (setting [17]); 4 µM in assay [4] (200 ms steps from -80 mV to 40 mV, first value, read-out: apparent dissociation constant Kd, from reduction of the integral under the current trace); 20 µM in assay [4] (setting [17]). For the same compound, the Kd in assay [8] (setting [16]) was 13 µM; in [8] (setting [17]) it was 24 µM; in assay [3] (read-out: Blockers, quinine), 1000 µM. Also, in [4] (oocytes), the “effect on mKv3.1b K+ currents, in words” value was “increased the apparent rate of mKv3.1b K+ current inactivation, and produced "use-dependent" block”.
